Like-named read-outs stand apart in the source and are kept apart here.
Assays:
[1] = test system: Caco-2 cells; assay: Transport in Caco-2 cells; assay type: in vitro ADME, human; conditions: Caco-2, no inhibitor; Papp (BL−AP)/Papp (AP−BL)
Description: (§1) The culture medium was changed every other day for the first 7 days and then daily for the next 14 days. […] Prior to the transport experiments, the cell monolayers were washed three times with HBSS at 37°C. […] At the same time, the corresponding opposite side was filled with medium as the receiving chamber. After incubation for 30, 60, 90, and 120 min, 250-μl aliquots of the medium was taken from the receiving chamber at each time point, and prepared for analysis by HPLC–MS/MS. […] where (ΔQ/Δt) is the linear slope of the drug concentration in the receptor chamber over time, A represents the surface area of the membrane (1.12 cm^2), and C0 is the initial concentration of drug in the donor chamber. The efflux ratio (ERpermeability) for BL to AP and AP to BL transport was defined by the following equation: […] where Papp (BL–AP) and Papp (AP–BL) are the apparent permeability of drugs from the basolateral (BL) to apical (AP) and AP to BL sides of the monolayer, respectively.

[2] = Transport in Caco-2 cells; assay type: in vitro ADME, human; conditions: human; for efflux ratio at 120 min: Caco-2, Caco-2, no inhibitor, Papp (BL−AP)/Papp (AP−BL); for Papp A→B at 120 min / Papp B→A at 120 min: Caco-2, no inhibitor, digoxin 10 μM, TB-2 5 μM, BBR 10 μM
Description: as §1

[3] = test system: primary rat hepatocytes; assay: Hepatic metabolism in primary hepatocytes; conditions: BBR 1 μM, 3 h, ABT 1 mM, TB-2 0.1 to 30 μM
[4] = test system: GK rats; assay: NFBG and FBG levels in GK rats, 6-week oral treatment; assay type: in vivo, rat; conditions: during 6-week treatment, TB-2 33.3, BBR 66.7, TB-2+BBR 100, metformin 200 mg/kg/day
Description: (§2) Four-week-old male GK rats were fed a high-fat diet, and age-matched non-diabetic Wistar rats were fed standard chow as the control group. Under these dietary conditions, blood glucose was estimated each week for 7 weeks in 12-h fasted rats using a portable glucometer (One Touch Sure Step Meter, Johnson & Johnson, United States) by drawing the blood from the tail vein. GK rats with fasting blood glucose levels (FBG) above 16.7 mM were considered as diabetic rats, and only uniformly diabetic rats were used in this study. […] All the drugs were suspended in 0.5% carboxymethylcellulose sodium (CMC-Na) solution for oral gavage (10 ml/kg) once per day (at 9:00) for 6 weeks. Simultaneously, the Wistar and vehicle groups received vehicle over the treatment period. Food consumption and body weight were measured every week throughout the experimental periods. Non-fasting blood glucose (NFBG) levels were determined by collecting blood samples from the tail vein (at 9:00), and FBG levels were determined after a 6-h fast (at 15:00) on days 0, 7, 14, 21, and 42. On day 28, an oral glucose tolerance test (OGTT) was performed after an overnight fast. […] On day 42, the rats were anesthetized with urethane (1.4 g/kg, dissolved in saline) after an overnight fast and were sacrificed to collect the liver, kidney, heart, and spleen. The organs were weighed after washing with saline and drying to calculate the organ coefficient, namely, the ratio between the weight of organs and the body in each rat.

[5] = Body weight, food intake, organ coefficients and side effects in GK rats; assay type: in vivo, rat
Description: as §2

[6] = ref Cai et al., 2008; cited from earlier work
[7] = in vivo; conditions: male, Wistar, rat, po
[8] = male, Wistar, rat, in vivo
[9] = test system: GK rats; assay: Oral glucose tolerance test (OGTT) in GK rats on day 28; assay type: in vivo, rat; conditions: after 4 weeks of treatment, glucose 2 g/kg oral
Description: as §2

[10] = in vivo; conditions: male, Wistar, rat, po; remark: listed apart in the source
[11] = PK in systemic plasma of GK rats after repeated oral administration (day 35); assay type: in vivo, rat; conditions: rat, in vivo
Description: Analyses were performed on a Shimadzu LCMS-8030 triple quadrupole system (Shimadzu Corp., Japan) equipped with an electrospray ionization source. Data processing was performed using Shimadzu LC–MS LabSolutions (version 5.42 SP4, Shimadzu, Japan). Chromatographic separation was carried out on a Waters CORTECS C18+ column (100 mm × 2.1 mm, 2.7 μm, Ireland) with a security guard C18+ column (5 mm × 2.1 mm, 2.7 μm, Ireland). […] The gradient elution was 85% B from 0 to 2.5 min, 85% B–83% B from 2.5 to 3.0 min, 83% B from 3.0 to 6.0 min, 83% B–40% B from 6.0 to 6.5 min, 40% B from 6.5 to 7.0 min, 40% B–85% B from 7.0 to 7.2 min, and 85% B from 7.2 to 12 min. […] The optimized precursor-to-product ion pairs (collision energy) were in the positive mode as follows: m/z 579.20–255.15 (28 V) for TB-2 (at 4.1 min) and timosaponin A3 (at 6.1 min) and 271.50–154.70 (25 V) for tolbutamide (IS, at 5.8 min). […] If the concentrations of the compounds were over the linear range, the relevant samples were diluted with blank matrix by a factor of 10. […] Four-week-old male GK rats were fed a high-fat diet, and age-matched non-diabetic Wistar rats were fed standard chow as the control group. Under these dietary conditions, blood glucose was estimated each week for 7 weeks in 12-h fasted rats using a portable glucometer (One Touch Sure Step Meter, Johnson & Johnson, United States) by drawing the blood from the tail vein. GK rats with fasting blood glucose levels (FBG) above 16.7 mM were considered as diabetic rats, and only uniformly diabetic rats were used in this study. […] All the drugs were suspended in 0.5% carboxymethylcellulose sodium (CMC-Na) solution for oral gavage (10 ml/kg) once per day (at 9:00) for 6 weeks. Simultaneously, the Wistar and vehicle groups received vehicle over the treatment period. Food consumption and body weight were measured every week throughout the experimental periods. Non-fasting blood glucose (NFBG) levels were determined by collecting blood samples from the tail vein (at 9:00), and FBG levels were determined after a 6-h fast (at 15:00) on days 0, 7, 14, 21, and 42. On day 28, an oral glucose tolerance test (OGTT) was performed after an overnight fast. […] On day 42, the rats were anesthetized with urethane (1.4 g/kg, dissolved in saline) after an overnight fast and were sacrificed to collect the liver, kidney, heart, and spleen. The organs were weighed after washing with saline and drying to calculate the organ coefficient, namely, the ratio between the weight of organs and the body in each rat. The liver samples were diluted with 3 volumes (0.5 g/1.5 ml) of saline and homogenized. The liver homogenates and plasma samples (100 μl) were precipitated with three volumes of acetonitrile (containing 10 μg/ml tolbutamide). […] Then, 100 μl of the original mobile phase was added, and the samples were vortexed for 5 min and centrifuged at 13,000 rpm at 4°C for 10 min. Finally, the supernatant was used for HPLC–QQQ–MS/MS analysis. A non-compartmental analysis was performed using WinNonlin software (Pharsight 6.2, Raleigh, NC, United States) to calculate the PK parameters. The significance of PK parameters in normal rats, generated by the sparse method in WinNonlin, was assessed with Welch’s unequal variances t-test. The significance of the other results was assessed using two-tailed Student’s t-tests. Statistical significance was defined as P < 0.05.

[12] = male, Wistar, rat, in vivo; remark: listed apart in the source
[13] = read-out: ERpermeability (efflux ratio)
[14] = with BBR 10 μM (co-incubated), Caco-2, TB-2 5 μM in presence of BBR (10 μM), n = 3

SMILES: C[C@H]1O[C@@H](O[C@H]2[C@@H](O)C[C@H](O[C@H]3[C@@H](O)C[C@H](O[C@H]4CC[C@@]5(C)[C@H](CC[C@@H]6[C@@H]5C[C@@H](O)[C@]5(C)[C@@H](C7=CC(=O)OC7)CC[C@]65O)C4)O[C@@H]3C)O[C@@H]2C)C[C@H](O)[C@@H]1O [Digoxin, digoxin]
- ERpermeability (efflux ratio) [1]: 138.8
- efflux ratio at 120 min [2, 13]: ~130
- Papp A→B at 120 min ([2]; n = 3): 0.191 ± 0.02 ×10⁻⁶ cm/s
- Papp B→A at 120 min ([2]; n = 3): 26.5 ± 1.91 ×10⁻⁶ cm/s

SMILES: CC(CCC1(O)OC2CC3C4CCC5CC(OC6OC(CO)C(O)C(O)C6OC6OC(CO)C(O)C(O)C6O)CCC5(C)C4CCC3(C)C2C1C)COC1OC(CO)C(O)C(O)C1O (stereo not shown) [TB-2, timosaponin B2]
- efflux ratio at 120 min [2, 13]: 1.1
- efflux ratio at 120 min, 5 μM ([2]; Caco-2, with BBR 10 μM (co-incubated), Caco-2, TB-2 5 μM in presence of BBR (10 μM), read-out: ERpermeability (efflux ratio)): 1
- Papp A→B at 120 min, 5 μM [2, 14]: 0.081 ± 0.035 ×10⁻⁶ cm/s
- Papp B→A at 120 min, 5 μM [2, 14]: 0.085 ± 0.035 ×10⁻⁶ cm/s
- Papp A→B at 120 min ([2]; n = 3): 0.057 ± 0.032 ×10⁻⁶ cm/s
- Papp B→A at 120 min ([2]; n = 3): 0.061 ± 0.043 ×10⁻⁶ cm/s
- effect on BBR metabolism and the generation of M2–M5 [3]: did not significantly affect
- FBG levels compared with the vehicle group (in words) [4]: no significant differences
- NFBG levels compared with the vehicle group (in words) [4]: no significant differences
- effect on body weight or food consumption vs vehicle ([5]; 6-week oral treatment): no effect
- effect on organ coefficients (liver and kidney) vs vehicle ([5]; day 42): limited
- bioavailability [6]: 1.2%
- Tmax ([7]; 33.3 mg/kg): 1 h
- Tmax ([7]; 100 mg/kg): 2 h
- half-life ([7]; 100 mg/kg): 22.8 h
- improvement of levels on co-administration [8]: 141–230%
- decrease in the AUC of blood glucose in OGTT vs vehicle [9]: didn’t significantly decrease
- Tmax ([10]; 33.3 mg/kg): 0.2 h
- half-life ([10]; 100 mg/kg): 23.2 h
- Tmax ([10]; 100 mg/kg): 2 h
- AUC ([11]; male, GK, po, 33.3 mg/kg): 100.4 ± 26.2 h ∗ ng/ml
- T1/2 ([11]; male, GK, po, 33.3 mg/kg): 8.6 ± 1.8 h
- Tmax ([11]; male, GK, po, 33.3 mg/kg): 1.1 ± 0.3 h
- AUC ([11]; male, GK, po, 33.3 mg/kg, AUC): 77.5 ± 13.6 ng·h/mL
- half-life ([11]; male, GK, po, 33.3 mg/kg, T1/2): 14.3 ± 5.3 h
- Tmax ([11]; male, GK, po, 33.3 mg/kg, Tmax): 2.1 ± 0.6 h
- increase in AUC on combination vs single treatment [11]: no significant improvement
- increase in Cmax on combination vs single treatment [11]: no significant improvement
- ERliver (liver extraction ratio) [12]: 77.8%
- ERliver (liver extraction ratio) ([12]; po, 33.3 mg/kg): 80.6%
